How the values were obtained:
[1] = target: T1, Glucocorticoid receptor (Homo sapiens) (UniProt P04150); assay: Antagonistic activity against Glucocorticoid receptor in co-transfected CV-1 cell; format: functional, cell-based
T1 sequence (whole entry): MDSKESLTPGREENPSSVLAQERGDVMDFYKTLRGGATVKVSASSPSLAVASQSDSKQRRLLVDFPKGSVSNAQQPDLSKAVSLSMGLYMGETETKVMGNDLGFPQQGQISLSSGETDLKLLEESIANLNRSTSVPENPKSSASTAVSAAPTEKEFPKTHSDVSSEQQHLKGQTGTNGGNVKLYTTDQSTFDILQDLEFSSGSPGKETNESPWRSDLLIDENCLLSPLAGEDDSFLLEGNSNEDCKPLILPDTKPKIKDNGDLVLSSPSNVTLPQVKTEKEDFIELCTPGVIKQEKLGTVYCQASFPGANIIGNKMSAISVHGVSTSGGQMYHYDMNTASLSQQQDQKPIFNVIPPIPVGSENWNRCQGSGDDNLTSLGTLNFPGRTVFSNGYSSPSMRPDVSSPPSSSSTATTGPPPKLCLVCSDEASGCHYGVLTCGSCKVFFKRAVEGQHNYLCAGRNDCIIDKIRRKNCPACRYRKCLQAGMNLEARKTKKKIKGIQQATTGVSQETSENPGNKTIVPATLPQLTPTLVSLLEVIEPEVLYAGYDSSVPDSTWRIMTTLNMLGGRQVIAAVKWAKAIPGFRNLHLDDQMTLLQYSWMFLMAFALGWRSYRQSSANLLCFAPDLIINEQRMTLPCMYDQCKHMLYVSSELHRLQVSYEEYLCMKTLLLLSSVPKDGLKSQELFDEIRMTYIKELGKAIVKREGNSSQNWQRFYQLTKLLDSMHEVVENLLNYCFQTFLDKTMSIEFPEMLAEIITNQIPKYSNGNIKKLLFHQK

Estrogen receptor [2] = target: T2, Estrogen receptor (Homo sapiens, UniProt Q92731+P03372); assay: (§1) Antagonistic activity against Estrogen receptor in co-transfected CV-1 cell; format: functional, cell-based
Estrogen receptor [3] = target: T2, Estrogen receptor; assay: as §1; format: functional, cell-based; remark: listed apart in the source
[4] = target: T3, Progesterone receptor (Homo sapiens) (UniProt P06401); assay: Antagonistic activity against hPR in co-transfected CV-1 cell; format: functional, cell-based
T3 sequence (whole entry): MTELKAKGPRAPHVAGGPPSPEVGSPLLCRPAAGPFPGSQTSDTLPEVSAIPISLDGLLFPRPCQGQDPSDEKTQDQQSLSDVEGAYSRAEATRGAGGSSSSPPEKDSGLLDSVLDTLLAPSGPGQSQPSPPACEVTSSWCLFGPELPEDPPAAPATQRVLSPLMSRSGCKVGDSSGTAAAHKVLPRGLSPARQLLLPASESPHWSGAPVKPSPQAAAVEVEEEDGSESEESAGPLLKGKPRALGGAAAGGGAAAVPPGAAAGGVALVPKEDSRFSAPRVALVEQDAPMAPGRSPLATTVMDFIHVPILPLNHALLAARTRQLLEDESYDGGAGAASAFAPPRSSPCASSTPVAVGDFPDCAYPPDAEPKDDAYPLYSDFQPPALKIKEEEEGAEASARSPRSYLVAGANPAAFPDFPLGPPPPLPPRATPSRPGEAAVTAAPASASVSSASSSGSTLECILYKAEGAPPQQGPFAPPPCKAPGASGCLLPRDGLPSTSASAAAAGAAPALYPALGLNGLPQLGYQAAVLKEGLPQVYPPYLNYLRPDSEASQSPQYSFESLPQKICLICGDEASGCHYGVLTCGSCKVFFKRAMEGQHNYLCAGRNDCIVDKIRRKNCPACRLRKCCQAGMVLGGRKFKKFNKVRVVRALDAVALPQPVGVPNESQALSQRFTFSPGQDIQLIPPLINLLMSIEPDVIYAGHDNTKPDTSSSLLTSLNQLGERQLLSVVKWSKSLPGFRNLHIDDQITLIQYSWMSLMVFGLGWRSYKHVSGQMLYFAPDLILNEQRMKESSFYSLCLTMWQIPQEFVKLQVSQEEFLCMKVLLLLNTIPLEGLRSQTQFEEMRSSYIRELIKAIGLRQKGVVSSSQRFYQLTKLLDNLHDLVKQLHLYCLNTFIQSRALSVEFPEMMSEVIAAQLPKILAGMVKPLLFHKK

Androgen receptor = target: T4, Androgen receptor (Homo sapiens, UniProt P10275)
T4 sequence (P10275 whole entry): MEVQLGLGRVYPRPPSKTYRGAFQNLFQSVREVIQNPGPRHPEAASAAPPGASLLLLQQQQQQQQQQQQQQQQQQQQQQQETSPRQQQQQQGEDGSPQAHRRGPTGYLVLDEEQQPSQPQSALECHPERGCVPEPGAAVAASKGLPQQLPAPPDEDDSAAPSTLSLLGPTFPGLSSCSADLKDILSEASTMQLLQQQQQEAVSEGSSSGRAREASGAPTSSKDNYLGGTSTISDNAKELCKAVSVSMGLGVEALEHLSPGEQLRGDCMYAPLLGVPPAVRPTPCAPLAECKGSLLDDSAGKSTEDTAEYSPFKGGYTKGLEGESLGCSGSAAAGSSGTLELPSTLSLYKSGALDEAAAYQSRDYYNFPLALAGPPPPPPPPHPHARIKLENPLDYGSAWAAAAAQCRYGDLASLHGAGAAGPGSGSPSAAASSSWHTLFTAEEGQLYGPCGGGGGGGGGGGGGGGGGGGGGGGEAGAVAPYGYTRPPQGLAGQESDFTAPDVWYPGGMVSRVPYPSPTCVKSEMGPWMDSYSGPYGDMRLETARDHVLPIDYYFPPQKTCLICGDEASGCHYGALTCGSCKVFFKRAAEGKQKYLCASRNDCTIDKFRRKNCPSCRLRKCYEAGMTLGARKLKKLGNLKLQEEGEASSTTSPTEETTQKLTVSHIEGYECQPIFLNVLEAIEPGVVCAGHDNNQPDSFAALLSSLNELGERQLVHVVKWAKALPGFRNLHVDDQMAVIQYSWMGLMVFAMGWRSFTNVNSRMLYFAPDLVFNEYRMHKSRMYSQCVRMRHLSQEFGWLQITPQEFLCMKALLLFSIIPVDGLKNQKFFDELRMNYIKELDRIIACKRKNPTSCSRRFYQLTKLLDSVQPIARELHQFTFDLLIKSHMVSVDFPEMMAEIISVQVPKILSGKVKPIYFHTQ
Description: Antagonistic activity (IC50) against human androgen receptor (hAR) in co-transfected CV-1 cell

| Structure (SMILES) | Efficacy [1] | Efficacy (Estrogen receptor [2]) | IC50 (Estrogen receptor [3]) | Efficacy [4] | IC50 (Androgen receptor) |
| --- | --- | --- | --- | --- | --- |
| CN1c2cc3c(cc2[C@H]2CCCC[C@H]21)c(C(F)(F)F)cc(=O)n3C | < 20% | < 20% | > 10 µM | 98% | 0.036 µM |
| C[C@H]1CC[C@H]2Nc3cc4c(cc3[C@H]2C1)c(C(F)(F)F)cc(=O)n4C | < 20% | < 20% | > 10 µM | 97% | 0.048 µM |
| CC1(C)CCC[C@]2(C)c3cc4c(C(F)(F)F)cc(O)nc4cc3N[C@H]12 | 31% | < 20% | > 10 µM | 96% | 0.051 µM |
